Reference: patent US12540118B2, “Dendrene amide compound, bactericide and use thereof” (Jiangsu Flag Chemical Industry Co., Ltd., priority 2020, dated 2026)

Tests used:
Sphaerotheca fuliginea = Sphaerotheca fuliginea potting method; format: in vivo; conditions: 100 mg/L; for pest or weed control at 100 µg/mL: Podosphaera fuliginea, read-out: Sphaerotheca fuliginea control rating
Protocol: The fungicidal activity of the control agents and target compounds are determined. The test and investigation method refers to SOP-SC-1101 sphaerotheca fuliginea potting method in disinfectant rolls written by KANGZHUO and GUBAOGEN in “Standard operation specification for testing biological activity of pesticides”.

Erysiphe graminis = Erysiphe graminis potting method; format: in vivo; conditions: for pest or weed control at 100 µg/mL / pest or weed control at 6.25 µg/mL / pest or weed control at 25 µg/mL: Blumeria graminis, read-out: Erysiphe graminis control rating
Protocol: The fungicidal activity of the control agents and target compounds are determined. The test and investigation method refers to SOP-SC-1116 Erysiphe graminis potting method in disinfectant rolls written by KANGZHUO and GUBAOGEN in “Standard operation specification for testing biological activity of pesticides”.

succinate dehydrogenase = target: T1, succinate dehydrogenase (Sus scrofa, UniProt A5GZW8+D0VWV4+Q007T0); test: Enzyme activity assay, succinate dehydrogenase (DCIP reduction); format: biochemical, porcine; conditions: read-out: Inhibitors (10 μM, SQR)
T1 construct: isolated from porcine hearts; from tissue; host or cells: porcine heart
Protocol: The inhibitory activities of control agents and target compounds on succinate dehydrogenase are determined.
The enzyme used in this test example is succinate dehydrogenase, which is isolated from porcine hearts.
The test method comprises the following steps: The total volume of the system is 1.8 ml, and the system contained 100 mM Na2HPO4—NaH2PO4 buffer (pH=7.4), 0.3 mM EDTA, 20 mM sodium succinate, 53 μM DCIP (2,6-dichloroindophenol sodium), and 2 nM succinate dehydrogenase. Thermostatic waterbath at 23° C. and magnetic stirring at 600 rpm. The decrease in the light absorption of the substrate DCIP is monitored at a wavelength of 600 nm and experimental points in a linear range are collected. Control substrate consumption not more than 5% of the experimental points. The molar extinction coefficient of DCIP is 21 mM^−1 cm^−1. And calculating the reduction yield of the DCIP in the reaction time, fitting a linear slope, and deducting the baseline slope to obtain the initial reaction speed.

T1 sequence (Q0QF01 43-664 partner): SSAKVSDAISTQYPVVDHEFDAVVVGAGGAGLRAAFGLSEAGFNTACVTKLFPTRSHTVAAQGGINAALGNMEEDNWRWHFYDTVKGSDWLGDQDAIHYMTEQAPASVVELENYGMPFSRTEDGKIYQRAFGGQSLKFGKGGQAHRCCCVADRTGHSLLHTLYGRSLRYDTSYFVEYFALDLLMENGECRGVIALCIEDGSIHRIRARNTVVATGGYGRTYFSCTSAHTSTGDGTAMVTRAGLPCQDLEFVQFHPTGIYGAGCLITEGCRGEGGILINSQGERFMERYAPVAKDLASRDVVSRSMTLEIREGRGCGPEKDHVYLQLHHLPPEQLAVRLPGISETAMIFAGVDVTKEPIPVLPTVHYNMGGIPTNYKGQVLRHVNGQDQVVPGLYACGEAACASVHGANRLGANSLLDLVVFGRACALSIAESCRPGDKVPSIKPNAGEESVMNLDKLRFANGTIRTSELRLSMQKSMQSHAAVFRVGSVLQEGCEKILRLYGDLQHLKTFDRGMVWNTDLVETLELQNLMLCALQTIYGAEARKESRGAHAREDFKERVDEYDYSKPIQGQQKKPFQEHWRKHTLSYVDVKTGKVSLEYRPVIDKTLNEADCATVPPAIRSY
T1 sequence (Q007T0 29-280): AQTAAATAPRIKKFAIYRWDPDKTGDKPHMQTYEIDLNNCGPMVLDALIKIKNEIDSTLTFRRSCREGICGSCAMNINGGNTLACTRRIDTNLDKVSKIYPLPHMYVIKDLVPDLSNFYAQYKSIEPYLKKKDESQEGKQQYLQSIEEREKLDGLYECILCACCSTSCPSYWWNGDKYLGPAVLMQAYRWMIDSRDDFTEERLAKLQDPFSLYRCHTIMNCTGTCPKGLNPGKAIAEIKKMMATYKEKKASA
T1 sequence (D0VWV4 30-169): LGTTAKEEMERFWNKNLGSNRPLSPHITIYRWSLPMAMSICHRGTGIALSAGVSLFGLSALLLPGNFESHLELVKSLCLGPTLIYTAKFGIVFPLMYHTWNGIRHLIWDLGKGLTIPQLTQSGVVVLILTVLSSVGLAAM
T1 sequence (A5GZW8 57-159 limits assumed): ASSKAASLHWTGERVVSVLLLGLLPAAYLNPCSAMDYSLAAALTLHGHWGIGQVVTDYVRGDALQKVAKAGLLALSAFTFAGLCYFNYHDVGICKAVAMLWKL

| Structure (SMILES) | pest or weed control at 100 µg/mL (Sphaerotheca fuliginea) [%] | pest or weed control at 100 µg/mL (Erysiphe graminis; 100 mg/L) [%] | inhibition at 10 µM (succinate dehydrogenase) [%] | other results |
| --- | --- | --- | --- | --- |
| CC(C(=C(Cl)Cl)c1ccccc1Cl)N(C(=O)c1c(C(F)F)nn(C)c1F)C1CC1 (stereo not shown) [Compound 168] | 80 to 100 | 80 to 100 | > 90 | – |
| Cn1nc(C(F)F)c(C(=O)N(CC(=C(Cl)Cl)c2ccccc2S(C)(=O)=O)C2CC2)c1F [Compound 161] | 80 to 100 | 80 to 100 | > 90 | – |
| C=C(CN(C(=O)c1c(C(F)F)nn(C)c1F)C1CC1)c1cc(F)c(Cl)cc1Cl [Compound 13] | 80 to 100 | 80 to 100 | > 90 | – |
| C=C(c1cc(C(C)C)ccc1C)C(C)N(C(=O)c1c(C(F)F)nn(C)c1F)C1CC1 (stereo not shown) [Compound 92] | 80 to 100 | 80 to 100 | > 90 | – |
| Cn1nc(C(F)F)c(C(=O)N(CC(=C(Cl)Cl)c2cccc(S(C)(=O)=O)c2)C2CC2)c1F [Compound 160] | 80 to 100 | 80 to 100 | > 90 | – |
| C=C(c1c(Cl)cccc1Cl)C(C)N(C(=O)c1c(C(F)F)nn(C)c1F)C1CC1 (stereo not shown) [Compound 73] | 80 to 100 | 80 to 100 | > 90 | – |
| C=C(CN(C(=O)c1c(C(F)F)nn(C)c1F)C1CC1)c1ccc(Cl)cc1F [Compound 42] | 80 to 100 | 80 to 100 | > 90 | – |
| C=C(c1ccc(Cl)cc1)C(C)N(C(=O)c1c(C(F)F)nn(C)c1F)C1CC1 (stereo not shown) [Compound 59] | 80 to 100 | 80 to 100 | > 90 | – |
| Cn1nc(C(F)F)c(C(=O)N(CC(=C(Cl)Cl)c2c(F)cccc2F)C2CC2)c1F [Compound 128] | 80 to 100 | 80 to 100 | > 90 | – |
| C=C(c1c(F)cccc1F)C(C)N(C(=O)c1c(C(F)F)nn(C)c1F)C1CC1 (stereo not shown) [Compound 78] | 80 to 100 | 80 to 100 | > 90 | – |
| C=C(CN(C(=O)c1c(C(F)F)nn(C)c1F)C1CC1)c1ccc(C(F)(F)F)cc1Cl [Compound 47] | 80 to 100 | 80 to 100 | > 90 | – |
| C=C(c1cccc(Cl)c1)C(C)N(C(=O)c1c(C(F)F)nn(C)c1F)C1CC1 (stereo not shown) [Compound 57] | 80 to 100 | 80 to 100 | > 90 | – |
| Cn1nc(C(F)F)c(C(=O)N(CC(=C(Cl)Cl)c2ccccc2Br)C2CC2)c1F [Compound 132] | 80 to 100 | 80 to 100 | > 90 | – |
| C=C(c1cc(Cl)ccc1F)C(C)N(C(=O)c1c(C(F)F)nn(C)c1F)C1CC1 (stereo not shown) [Compound 99] | 80 to 100 | 80 to 100 | > 90 | – |
| CC(C(=C(Cl)Cl)c1cc(F)ccc1F)N(C(=O)c1c(C(F)F)nn(C)c1F)C1CC1 (stereo not shown) [Compound 180] | 80 to 100 | 80 to 100 | > 90 | – |
| CC(C(=C(Cl)Cl)c1ccc(C#CC2CC2)cc1F)N(C(=O)c1c(C(F)F)nn(C)c1F)C1CC1 (stereo not shown) [Compound 219] | 80 to 100 | 80 to 100 | > 90 | – |
| Cn1nc(C(F)F)c(C(=O)N(CC(=C(Cl)Cl)c2cccc(C(F)(F)F)c2Cl)C2CC2)c1F [Compound 157] | 80 to 100 | 80 to 100 | > 90 | – |

| Structure (SMILES) | pest or weed control at 100 µg/mL (Sphaerotheca fuliginea) [%] | pest or weed control at 100 µg/mL (Erysiphe graminis; 100 mg/L) [%] | inhibition at 10 µM (succinate dehydrogenase) [%] | other results |
| --- | --- | --- | --- | --- |
| C=C(CN(C(=O)c1c(C(F)F)nn(C)c1F)C1CC1)c1ccccc1F [Compound 20] | 80 to 100 | 80 to 100 | > 90 | – |
| C=C(c1ccc(Cl)cc1F)C(C)N(C(=O)c1c(C(F)F)nn(C)c1F)C1CC1 (stereo not shown) [Compound 97] | 80 to 100 | 80 to 100 | > 90 | – |
| C=C(c1ccc(OC)cc1)C(C)N(C(=O)c1c(C(F)F)nn(C)c1F)C1CC1 (stereo not shown) [Compound 61] | 80 to 100 | 80 to 100 | > 90 | – |
| C=C(CN(C(=O)c1c(C(F)F)nn(C)c1F)C1CC1)c1c(Br)cccc1Br [Compound 30] | 80 to 100 | 80 to 100 | > 90 | – |
| C=C(CN(C(=O)c1c(C(F)F)nn(C)c1F)C1CC1)c1cccc(S(=O)(=O)CC)c1 [Compound 53] | 70 to 80 | 80 to 100 | > 90 | – |
| C=C(CN(C(=O)c1c(C(F)F)nn(C)c1F)C1CC1)c1cc(C(F)(F)F)ccc1Cl [Compound 45] | 80 to 100 | 80 to 100 | > 90 | – |
| C=C(CN(C(=O)c1c(C(F)F)nn(C)c1F)C1CC1)c1cccc(F)c1F [Compound 12] | 70 to 80 | 80 to 100 | > 90 | – |
| CC(C(=C(Cl)Cl)c1ccc(F)cc1Cl)N(C(=O)c1c(C(F)F)nn(C)c1F)C1CC1 (stereo not shown) [Compound 207] | 80 to 100 | 80 to 100 | > 90 | – |
| C=C(CN(C(=O)c1c(C(F)F)nn(C)c1F)C1CC1)c1cc(C(C)C)ccc1C [Compound 37] | 70 to 80 | 80 to 100 | > 90 | pest or weed control at 6.25 µg/mL (Erysiphe graminis; 6.25 mg/L): 70 to 80%; pest or weed control at 25 µg/mL (Erysiphe graminis; 25 mg/L): 80 to 100% |
| C=C(c1cc(Br)ccc1Br)C(C)N(C(=O)c1c(C(F)F)nn(C)c1F)C1CC1 (stereo not shown) [Compound 83] | 80 to 100 | 80 to 100 | > 90 | – |
| CCS(=O)(=O)c1ccc(C(=C(Cl)Cl)C(C)N(C(=O)c2c(C(F)F)nn(C)c2F)C2CC2)cc1 (stereo not shown) [Compound 216] | 80 to 100 | 80 to 100 | > 90 | – |
| C=C(c1c(F)cc(F)cc1F)C(C)N(C(=O)c1c(C(F)F)nn(C)c1F)C1CC1 (stereo not shown) [Compound 79] | 80 to 100 | 80 to 100 | > 90 | – |
| Cc1ccc(C(C)(C)C)cc1C(=C(Cl)Cl)C(C)N(C(=O)c1c(C(F)F)nn(C)c1F)C1CC1 (stereo not shown) [Compound 200] | 80 to 100 | 80 to 100 | > 90 | – |
| CC(C(=C(Cl)Cl)c1ccc(Cl)cc1F)N(C(=O)c1c(C(F)F)nn(C)c1F)C1CC1 (stereo not shown) [Compound 206] | 80 to 100 | 80 to 100 | > 90 | – |
| Cn1nc(C(F)F)c(C(=O)N(CC(=C(Cl)Cl)c2ccc(Cl)cc2)C2CC2)c1Cl [Compound 113] | 80 to 100 | 80 to 100 | > 90 | – |
| OC(Cc1ccccc1Cl)(Cn1nc[nH]c1=S)C1(Cl)CC1 (stereo not shown) [Prothioconazole, reference compound] | 70 to 80 | 80 to 100 | – | pest or weed control at 6.25 µg/mL (Erysiphe graminis; 6.25 mg/L): 70 to 80%; pest or weed control at 25 µg/mL (Erysiphe graminis; 25 mg/L): 80 to 100% |
| CNC(=O)/C(=N/OC)c1ccccc1CO/N=C(C)/C=C/c1c(Cl)cccc1Cl [Fenaminstrobin, reference compound] | – | – | – | Sphaerotheca fuliginea control rating (Sphaerotheca fuliginea): B (70% ≤ B < 80%); Erysiphe graminis control rating (Erysiphe graminis; 6.25 mg/L): B (70% ≤ B < 80%); Erysiphe graminis control rating (Erysiphe graminis; 25 mg/L): A (80% ≤ A ≤ 100%); Erysiphe graminis control rating (Erysiphe graminis; 100 mg/L): A (80% ≤ A ≤ 100%) |
